Test results reported in patent US10064858B2, “Methods and compositions for treating bacterial infections with iron chelators” (THE UNITED STATES OF AMERICA, AS REPRESENTED BY THE …, priority 2011, dated 2018).

Experiments:
Type in all cases: cell-based
[1] = system: Klebsiella pneumoniae; assay: Growth (OD600) of MDR bacteria with VK28 in low-iron M9 media; details: 200 μM VK28
Experimental: (§1) Isolates of Extended Spectrum Beta-Lactamase (ESBL) Escherichia coli, Klebsiella pneumoniae, Pseudomonas aeruginosa, and Methicillin-Resistant Staphylococcus aureus (MRSA) were challenged with either 0 μM, 100 μM or 200 μM VK28 in low-iron M9 media after 4 hr of growth. Growth was estimated by absorbance at 600 nm at 24 hr post inoculation.

[2] = system: Extended Spectrum Beta-Lactamase (ESBL) Escherichia coli; assay: as above; details: 200 μM VK28
Experimental: as §1

[3] = system: Pseudomonas aeruginosa; assay: as above; details: 200 μM VK28
Experimental: as §1

[4] = system: Methicillin-Resistant Staphylococcus aureus (MRSA); assay: as above; details: both 100 μM and 200 μM VK28
Experimental: as §1

[5] = system: A. baumannii; assay: Growth (OD600) with VK28 added at different times post-inoculation; details: 200 μM VK28 added at 0, 4, 8, 12, 16, 20 hr post-inoculation; low-iron M9
Experimental: A. baumannii was grown in low-iron M9 media and challenged with 200 μM VK28 at 0 hr (▪), 4 hr (▴), 8 hr (▪), 12 hr (▪), 16 hr (•), and 20 hr (▪) post-inoculation. Growth was estimated by absorbance at 600 nm every 4 hr for 24 hr.

OCCN1CCN(Cc2ccc(O)c3ncccc23)CC1 [VK28, 5-(4-(2-hydroxyethyl)piperazin-1-ylmethyl)-8-hydroxyquinoline]
growth (OD600) at 24 hr post inoculation [1]: reduced
growth (OD600) at 24 hr post inoculation [2]: reduced
OD600 at 24 hr post inoculation [3]: significantly reduced
OD600 at 24 hr post inoculation [4]: significantly reduced
continued multiplication of bacteria (OD600) [5]: effective to halt the continued multiplication of bacteria
